# Laboratory results taken from patent US10391095B2, “DNA-PK inhibitors” (Vertex Pharmaceuticals Incorporated, priority 2012, dated 2019).
# Molecular target: DNA-PK (Homo sapiens, UniProt P78527)
# Assay: DNA-PK inhibition assay (radiometric, 33P-ATP)
# Type: biochemical
# Details: 100 μM ATP, competitive tight-binding fit
# How it was run: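 33P transfer from 100 µM ATP to a DNA-PK peptide (0.8 mg/mL) is measured after 45 min, using about 6 nM enzyme activated by 10 µg/mL sheared dsDNA (HEPES pH 7.5, MgCl2, DTT). Filter-bound counts fitted to a competitive tight-binding inhibition model give Ki.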
row,Ki,Compound
1,< 0.03 µM,CNC(=O)c1ccnc2c([C@H](C)CNc3cc(-c4ccc(N[C@@H]5COC[C@H]5O)nc4)ncn3)cccc12 [Compound 726]
2,< 0.03 µM,CNC(=O)c1ccnc2c([C@H](C)CNc3cc(-c4ccc(C)cc4)ncn3)cccc12 [Compound 671]
3,< 0.03 µM,CCOc1cc(-c2cc(NC[C@@H](C)c3cccc4c(C(=O)NC)ccnc34)ncn2)ccn1 [Compound 962]
4,< 0.03 µM,CCNc1ccc(-c2cc(NC[C@@H](C)c3cccc4c(C(=O)NC)c(F)cnc34)ncn2)cn1 [Compound 979]
5,< 0.03 µM,CNC(=O)c1c(-n2ccc(C)n2)cnc2c([C@H](C)CNc3cc(-c4ccc(C)nc4)ncn3)cccc12 [Compound 740]
6,< 0.03 µM,CNC(=O)c1ccc([C@H](C)CNc2cc(-c3cnc4c(ccn4C4COC4)c3)ncn2)c(OC)c1 [Compound 252]
7,< 0.03 µM,CNC(=O)c1ccnc2c([C@H](C)CNc3cc(-c4ccc5c(c4)CCN(C(C)=O)C5)ncn3)cccc12 [Compound 803]
8,< 0.03 µM,CNC(=O)c1ccnc2c([C@H](C)CNc3cc(-c4ccc(NC(=O)OC)cc4)ncn3)cccc12 [Compound 750]
9,< 0.03 µM,C[C@H](CNc1cc(-c2cc(C(F)(F)F)c3ncccc3c2)ncn1)c1ccnc2c1OCC2 [Compound 591]
10,< 0.03 µM,CC(=O)N1CCN(c2ccc(-c3cc(NCC(C)c4ccccc4O)ncn3)cn2)CC1 (stereo not drawn) [Compound 136]
11,< 0.03 µM,CNC(=O)c1ccc(C(C)CNc2cc(-c3ccc(C)nc3)ncn2)c(OC)c1 (stereo not drawn) [Compound 123]
12,< 0.03 µM,CNC(=O)c1ccnc2c([C@H](C)CNc3cc(-c4cncc(OC)c4)ncn3)cccc12 [Compound 878]
13,< 0.03 µM,Cc1ccc(-c2cc(NCC(C)c3cncc4nccnc34)ncn2)cn1 (stereo not drawn) [Compound 407]
14,< 0.03 µM,CC(CNc1cc(-c2cnc3c(cnn3CCO)c2)ncn1)c1cncc2c1OCC2 (stereo not drawn) [Compound 419]
15,< 0.03 µM,CNC(=O)c1ccnc2c([C@H](C)CNc3cc(-c4ccc(CC(C)C)nc4)ncn3)cccc12 [Compound 816]
16,< 0.03 µM,CNCCCNc1cc(-c2cc(NC[C@@H](C)c3ccccc3OC)ncn2)ccn1 [Compound 209]
17,< 0.03 µM,COc1ncc(-c2cc(NC[C@@H](C)c3ccnc4c3OCCO4)ncn2)cc1CO [Compound 550]
18,< 0.03 µM,CNC(=O)c1ccc(C(C)CNc2cc(-c3ccc(C4(CO)CC4)cc3)ncn2)c(OC)c1 (stereo not drawn) [Compound 338]
19,< 0.03 µM,Cc1ccc(-c2cc(NCC(C)c3ccccc3OCC3CC3)ncn2)cn1 (stereo not drawn) [Compound 186]
20,< 0.03 µM,Cc1ccc(-c2cc(NCC(C)c3ccccc3OC3CCCC3)ncn2)cn1 (stereo not drawn) [Compound 241]
21,< 0.03 µM,Cc1ccc(-c2cc(NCC(C)c3ccc(F)cc3OC3CC3)ncn2)cn1 (stereo not drawn) [Compound 270]
22,< 0.03 µM,CC(CNc1cc(-c2cnc3c(cnn3C3COC3)c2)ncn1)c1cncc2c1OCC2 (stereo not drawn) [Compound 420]
23,< 0.03 µM,CNC(=O)c1ccnc2c([C@H](C)CNc3cc(-c4ccc(F)cc4)ncn3)cccc12 [Compound 684]
24,< 0.03 µM,CNC(=O)c1c(F)cnc2c([C@H](C)CNc3cc(-c4csc(-n5cccn5)n4)ncn3)cccc12 [Compound 782]
25,< 0.03 µM,COc1ccccc1[C@H](C)CNc1cc(-c2cnc3c(cnn3CCO)c2)ncn1 [Compound 127]

row,Ki,Compound
1,< 0.03 µM,CC(=O)N1CCOc2c([C@H](C)CNc3cc(-c4cnc(C)nc4)ncn3)cccc21 [Compound 627]
2,< 0.03 µM,CNC(=O)c1ccnc2c([C@H](C)CNc3cc(-c4ccc(NCCn5cccc5)nc4)ncn3)cccc12 [Compound 702]
3,< 0.03 µM,C[C@H](CNc1cc(-c2cnc3c(cnn3C)c2)ncn1)c1ccnc2c1OCC2 [Compound 438]
4,< 0.03 µM,CNC(=O)c1ccc([C@H](C)CNc2cc(-c3ccc(C(=O)NC4CC4)cc3)ncn2)c(OC)c1 [Compound 318]
5,< 0.03 µM,C=C(C)CNc1ccc(-c2cc(NC[C@@H](C)c3ccc(C(=O)NC)cc3OC)ncn2)cn1 [Compound 389]
6,< 0.03 µM,CC(CNc1cc(-c2cnc3c(cnn3C3CCN(C)CC3)c2)ncn1)c1ccccc1OC1CC1 (stereo not drawn) [Compound 145]
7,< 0.03 µM,CNC(=O)c1ccnc2c([C@H](C)CNc3cc(-c4cnc5c(c4)COC5)ncn3)ccc(F)c12 [Compound 967]
8,< 0.03 µM,CCNc1ccc(-c2cc(NC[C@@H](C)c3ccc(C(=O)NC)cc3OC)ncn2)cn1 [Compound 360]
9,< 0.03 µM,CNC(=O)c1ccnc2c([C@H](C)CNc3cc(-c4ccc(NCC(F)F)nc4)ncn3)cccc12 [Compound 975]
10,< 0.03 µM,"C[C@H](CNc1cc(-c2cnc3c(cnn3CC(O)CO)c2)ncn1)c1ccnc2c1OCC2 (single isomer, unassigned) [Compound 436]"
11,< 0.03 µM,CNC(=O)c1ccnc2c([C@H](C)CNc3cc(-c4ccc5c(c4)CNC5=O)ncn3)cccc12 [Compound 758]
12,< 0.03 µM,COc1ccccc1CCNc1cc(-c2cnc3c(cnn3CS(C)(=O)=O)c2)ncn1 [Compound 97]
13,< 0.03 µM,CNC(=O)c1ccc([C@H](C)CNc2cc(-c3ccc(N4CCCC4=O)cc3)ncn2)c(OC)c1 [Compound 313]
14,< 0.03 µM,CNC(=O)c1ccnc2c([C@H](C)CNc3cc(-c4ccc(C(C)C)nc4)ncn3)ccc(F)c12 [Compound 853]
15,< 0.03 µM,CNC(=O)c1ccnc2c([C@H](C)CNc3cc(-c4ccc(CN5CCN(C)CC5)nc4)ncn3)cccc12 [Compound 670]
16,< 0.03 µM,CNC(=O)c1c(F)cnc2c([C@H](C)CNc3cc(-c4ccc(C(O)C(C)C)nc4)ncn3)cccc12 (stereo partly drawn) [Compound 927]
17,< 0.03 µM,CNC(=O)c1ccnc2c([C@H](C)CNc3cc(-c4ccc(OC)c(F)c4)ncn3)cccc12 [Compound 823]
18,< 0.03 µM,COc1cc(-c2cc(NC[C@@H](C)c3ccnc4c3OCC4)ncn2)cnc1OC [Compound 595]
19,< 0.03 µM,CN1CCN(c2ccc(-c3cc(NCCc4ccccc4OC4CC4)ncn3)cn2)CC1 [Compound 87]
20,< 0.03 µM,CNC(=O)c1ccnc2c([C@H](C)CNc3cc(-c4cnc5c(cnn5C(C)(C)C)c4)ncn3)cccc12 [Compound 619]
21,< 0.03 µM,"[2H]c1nc(C)nc([2H])c1-c1cc(NC[C@@H](C)c2cccc3c(C(=O)NC)ccnc23)ncn1 [Compound 844, (S)—N-methyl-8-(1-((2′-methyl-4′,6′-dideutero-[4,5′-bipyrimidin]-6-yl)amino)propan-2-yl)quinoline-4-carboxamide]"
22,< 0.03 µM,COc1cc(C(=O)NC2CC2)ccc1C(C)CNc1cc(-c2ccc(C)nc2)ncn1 (stereo not drawn) [Compound 158]
23,< 0.03 µM,COc1ccccc1[C@H](C)CNc1cc(-c2ccc(C)nc2)ncn1 [Compound 55]
24,< 0.03 µM,CNC(=O)c1ccnc2c([C@H](C)CNc3cc(-c4ccc(N5CCC6(COC6)C5)nc4)ncn3)cccc12 [Compound 735]
25,< 0.03 µM,CC(CNc1cc(-c2ccc(N3CCN(C)CC3)nc2)ncn1)c1ccccc1OC(F)F (stereo not drawn) [Compound 63]

row,Ki,Compound
1,< 0.03 µM,CCNc1ncc(-c2cc(NC[C@@H](C)c3ccc(C(=O)NC)cc3OC)ncn2)cn1 [Compound 585]
2,< 0.03 µM,CNC(=O)c1ccnc2c([C@H](C)CNc3cc(-c4ccc(NCCCO)nc4)ncn3)cccc12 [Compound 715]
3,< 0.03 µM,COc1ccsc1C(C)CNc1cc(-c2cnc3c(cnn3C3CCN(C)CC3)c2)ncn1 (stereo not drawn) [Compound 262]
4,< 0.03 µM,COc1sccc1C(C)CNc1cc(-c2ccc(N3CCN(C)CC3)nc2)ncn1 (stereo not drawn) [Compound 265]
5,< 0.03 µM,CNC(=O)c1ccc([C@H](C)CNc2cc(-c3cnc4c(ccn4CCO)c3)ncn2)c(OC)c1 [Compound 269]
6,< 0.03 µM,CNC(=O)c1ccnc2c([C@H](C)CNc3cc(-c4cnc(C#N)c(OC)c4)ncn3)cccc12 [Compound 924]
7,< 0.03 µM,CNC(=O)c1ccnc2c([C@H](C)CNc3cc(-c4ccc5c(c4)N(C)CCO5)ncn3)cccc12 [Compound 864]
8,< 0.03 µM,Cc1ccc(-c2cc(NC[C@@H](C)c3ccnc4c3OCC4(C)C)ncn2)cn1 [Compound 583]
9,< 0.03 µM,COc1ncc(-c2cc(NC[C@@H](C)c3ccnc4c3OCCO4)ncn2)cc1N [Compound 519]
10,< 0.03 µM,CNC(=O)c1ccnc2c([C@H](C)CNc3cc(-c4cnc(OC(C)C)nc4)ncn3)ccc(F)c12 [Compound 983]
11,< 0.03 µM,C[C@H](CNc1cc(-c2cnc(NCCO)nc2)ncn1)c1ccnc2c1OCCO2 [Compound 457]
12,< 0.03 µM,Cc1ccc(-c2cc(NCC(C)c3cccc4c3OCCO4)ncn2)cn1 (stereo not drawn) [Compound 447]
13,< 0.03 µM,CNC(=O)c1ccnc2c([C@H](C)CNc3cc(-c4ccc(C(F)(F)F)nc4)ncn3)cccc12 [Compound 649]
14,< 0.03 µM,Cc1ccc(-c2cc(NC[C@@H](C)c3cccc4c(C(=O)NCC(F)F)ccnc34)ncn2)cn1 [Compound 569]
15,< 0.03 µM,CCCn1ccc2cc(-c3cc(NCCc4ccccc4OC)ncn3)cnc21 [Compound 36]
16,< 0.03 µM,CC(CNc1cc(-c2cnc3c(cnn3CC3CC3)c2)ncn1)c1ccccc1OC1COC1 (stereo not drawn) [Compound 217]
17,< 0.03 µM,COc1ccccc1CCNc1cc(-c2ccc(N3CCCC3)nc2)ncn1 [Compound 46]
18,< 0.03 µM,COc1ccccc1CCNc1cc(-c2cnc3c(ccn3C)c2)ncn1 [Compound 34]
19,< 0.03 µM,CNc1ncc(-c2cc(NC[C@@H](C)c3cc(C)nc4c3OCC4)ncn2)cn1 [Compound 574]
20,< 0.03 µM,CNC(=O)c1c(F)cnc2c([C@H](C)CNc3cc(-c4cncc(C#N)c4)ncn3)cccc12 [Compound 963]
21,< 0.03 µM,CNC(=O)c1c(F)cnc2c([C@H](C)CNc3cc(-c4cnc(C(C)(C)OC)nc4)ncn3)cccc12 [Compound 930]
22,< 0.03 µM,CNC(=O)c1ccnc2c([C@H](C)CNc3cc(-c4ccc(N5CCC(C)(O)C5)nc4)ncn3)cccc12 (stereo partly drawn) [Compound 732]
23,< 0.03 µM,CNC(=O)c1ncnc2c([C@H](C)CNc3cc(-c4cnc(C)nc4)ncn3)cccc12 [Compound 976]

row,Compound,Ki
1,COc1ccccc1[C@H](C)CNc1cc(-c2ccc(N(C)C3CCN(C)CC3)nc2)ncn1 [Compound 223],< 0.03 µM
2,CNC(=O)c1ccnc2c([C@H](C)CNc3cc(-c4ccc(N(C)C5CCN(C)CC5)nc4)ncn3)cccc12 [Compound 634],< 0.03 µM
